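All cell lines were grown in 96-well plates and treated with compound for 48 hours. Abbreviation: GI50, concentration required for 50% inhibition of growth.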 Activity calls are given as the source filed them. Rule as the data show it: active = GI50 up to about 1.1 µM and inactive = higher.
Key:
Assay in all cases: growth of human tumour cells (NCI), 48 h
IGROV-1 = test system: IGROV-1
K562 = test system: K562
U-251 = test system: U-251
MCF7 = test system: MCF7
SK-MEL-28 = test system: SK-MEL-28
M14 = test system: M14
SW-620 = test system: SW-620
HCT-15 = test system: HCT-15
KM12 = test system: KM12
OVCAR-4 = test system: OVCAR-4
MDA-MB-435 = test system: MDA-MB-435
HT-29 = test system: HT-29
HOP-92 = test system: HOP-92
CCRF-CEM = test system: CCRF-CEM
SK-OV-3 = test system: SK-OV-3
HOP-62 = test system: HOP-62
UACC-62 = test system: UACC-62
HCT-116 = test system: HCT-116
SF-539 = test system: SF-539
UACC-257 = test system: UACC-257

Row | Compound | GI50 (IGROV-1) | GI50 (K562) | GI50 (U-251) | GI50 (MCF7) | GI50 (SK-MEL-28) | GI50 (M14) | GI50 (SW-620) | GI50 (HCT-15) | GI50 (KM12) | GI50 (OVCAR-4) | GI50 (MDA-MB-435) | GI50 (HT-29) | GI50 (HOP-92) | GI50 (CCRF-CEM) | GI50 (SK-OV-3) | GI50 (HOP-62) | GI50 (UACC-62) | GI50 (HCT-116) | GI50 (SF-539) | GI50 (UACC-257)
1 | O=C1Nc2ccccc2/C1=N/NC(=S)Nc1ccccc1Cl | 3.33 µM (inactive) | 1.54 µM (inactive) | 3.56 µM (inactive) | 3.4 µM (inactive) | 12.2 µM (inactive) | 1.62 µM (inactive) | 5.9 µM (inactive) | 2.31 µM | 1.98 µM (inactive) | 5.13 µM (inactive) | 10.8 µM (inactive) | 5.41 µM (inactive) | 3.7 µM (inactive) | 0.724 µM (active) | 10.7 µM (inactive) | 11.5 µM (inactive) | 3.94 µM (inactive) | 0.729 µM (active) | 2.4 µM (inactive) | 2 µM (inactive)
2 | COc1cc2c3c(c4ccc(O)cc4c2cc1OC)[C@@H](O)[C@@H]1CCCN1C3 | < 0.001 µM (active) | 0.00203 µM (active) | < 0.001 µM (active) | < 0.001 µM (active) | < 0.001 µM (active) | < 0.001 µM (active) | < 0.001 µM (active) | < 0.001 µM | < 0.001 µM (active) | < 0.001 µM (active) | < 0.001 µM (active) | 0.00233 µM (active) | 0.0011 µM (active) | < 0.001 µM (active) | 0.00105 µM (active) | < 0.001 µM (active) | 0.00105 µM (active) | < 0.001 µM (active) | < 0.001 µM (active) | 0.00121 µM (active)
3 | O=C1c2ccccc2C(=O)c2c(OCCOCCO)cccc21 | 45.5 µM (inactive) | > 100 µM (inactive) | > 100 µM (inactive) | 74.6 µM (inactive) | > 100 µM (inactive) | > 100 µM (inactive) | 57.5 µM (inactive) | 63.7 µM | 46.6 µM (inactive) | 72.9 µM (inactive) | > 100 µM (inactive) | 63.4 µM (inactive) | 12.6 µM (inactive) |  | > 100 µM (inactive) | > 100 µM (inactive) | 0.585 µM (active) | 45.6 µM (inactive) | 45.3 µM (inactive) | > 100 µM (inactive)
4 | COc1ccc(OC)c2c1C(=O)C(Cl)=C(N1CCN(CCOCCO)CC1)C2=O | 7.31 µM (inactive) | 1.91 µM (inactive) | 21.4 µM (inactive) | 6.12 µM (inactive) | 16.1 µM (inactive) | 17.2 µM (inactive) | 8.85 µM (inactive) | 7.38 µM | 20.5 µM (inactive) | 17.9 µM (inactive) | 14.4 µM (inactive) | 6 µM (inactive) | 17.7 µM (inactive) | 2.72 µM (inactive) | 19.6 µM (inactive) | 5.07 µM (inactive) | 10.5 µM (inactive) | 4.66 µM (inactive) | 17.8 µM (inactive) | 17.3 µM (inactive)
5 | COC(=O)C1=COC2OC3CC1C2C(C)O3 (centres undefined) | > 100 µM (inactive) |  | > 100 µM (inactive) | > 100 µM (inactive) | > 100 µM (inactive) | > 100 µM (inactive) | > 100 µM (inactive) | > 100 µM | > 100 µM (inactive) | > 100 µM (inactive) | > 100 µM (inactive) | > 100 µM (inactive) | > 100 µM (inactive) | > 100 µM (inactive) | > 100 µM (inactive) | > 100 µM (inactive) | > 100 µM (inactive) | > 100 µM (inactive) | > 100 µM (inactive) | > 100 µM (inactive)
6 | Cc1ccc(S(=O)(=O)C2=Cc3ccc(C(F)(F)F)cc3C2(O)c2cccc(C(F)(F)F)c2)cc1 (centres undefined) | 2.64 µM (inactive) | 1.99 µM (inactive) | 1.87 µM (inactive) | 2.3 µM (inactive) | 1.9 µM (inactive) | 2.4 µM (inactive) | 1.85 µM (inactive) | 1.95 µM | 1.88 µM (inactive) | 1.85 µM (inactive) | 2.05 µM (inactive) | 2.19 µM (inactive) | 1.88 µM (inactive) | 2.56 µM (inactive) | 10.2 µM (inactive) | 7.35 µM (inactive) | 2.39 µM (inactive) | 1.58 µM (inactive) | 1.95 µM (inactive) | 1.85 µM (inactive)
7 | COCO[C@@H]1C[C@H]2C(O)Nc3ccccc3C(=O)N2C1 (some centres undefined) | > 100 µM (inactive) | > 100 µM (inactive) | > 100 µM (inactive) | > 100 µM (inactive) | > 100 µM (inactive) | > 100 µM (inactive) | > 100 µM (inactive) | > 100 µM | > 100 µM (inactive) | > 100 µM (inactive) | > 100 µM (inactive) | > 100 µM (inactive) | > 100 µM (inactive) | > 100 µM (inactive) | > 100 µM (inactive) | > 100 µM (inactive) | > 100 µM (inactive) |  | > 100 µM (inactive) | > 100 µM (inactive)
8 | C[C@H]1C(=O)O[C@@H]2CCN3CC=C(COC(=O)[C@](C)(O)[C@@]1(C)O)[C@H]23 | > 100 µM (inactive) | > 100 µM (inactive) | > 100 µM (inactive) | > 100 µM (inactive) | > 100 µM (inactive) | > 100 µM (inactive) | > 100 µM (inactive) | > 100 µM | > 100 µM (inactive) | > 100 µM (inactive) | > 100 µM (inactive) | > 100 µM (inactive) | > 100 µM (inactive) | > 100 µM (inactive) | > 100 µM (inactive) | > 100 µM (inactive) | > 100 µM (inactive) | > 100 µM (inactive) | > 100 µM (inactive) | > 100 µM (inactive)
9 | Cn1c2ncccc2n2c(=O)cc(O)cc12 | 12.3 µM (inactive) | > 100 µM (inactive) | > 100 µM (inactive) | 33.9 µM (inactive) | 89.3 µM (inactive) | > 100 µM (inactive) | 82.4 µM (inactive) | 48 µM | 65.8 µM (inactive) | 40 µM (inactive) | 53.3 µM (inactive) | 46.6 µM (inactive) | 18.2 µM (inactive) | > 100 µM (inactive) | > 100 µM (inactive) | 39.4 µM (inactive) | 77.3 µM (inactive) | > 100 µM (inactive) | > 100 µM (inactive) | > 100 µM (inactive)
10 | COc1ccc(-c2c(-c3ccccc3)c(C)nc3nc(SC)nc(SC)c23)cc1OC | 30 µM (inactive) | 4.54 µM (inactive) | 9.1 µM (inactive) | 10.6 µM (inactive) | 22.8 µM (inactive) | 22.8 µM (inactive) | 6.32 µM (inactive) | 8.2 µM | 18.1 µM (inactive) |  | 8.17 µM (inactive) | 5.71 µM (inactive) | 4.39 µM (inactive) | 4.26 µM (inactive) | 3.72 µM (inactive) | 9.08 µM (inactive) | 11.3 µM (inactive) | 6.18 µM (inactive) | 5.2 µM (inactive) | 21.5 µM (inactive)
11 | C=C(Nc1ccc([N+](=O)[O-])cc1[N+](=O)[O-])c1c/c(=N\NC(N)=S)c2ccccc2o1 | 36.1 µM (inactive) |  | 61.1 µM (inactive) | 40.6 µM (inactive) | > 100 µM (inactive) | > 100 µM (inactive) | 39.8 µM (inactive) | 51.9 µM | 59.4 µM (inactive) | 49 µM (inactive) | 81.5 µM (inactive) | 87.7 µM (inactive) | 29 µM (inactive) | 41.9 µM (inactive) | 35.7 µM (inactive) | 70 µM (inactive) | > 100 µM (inactive) | 33.7 µM (inactive) | 16.6 µM (inactive) | 91.6 µM (inactive)
12 | CN1CC(c2ccccc2)N(CCCCN2CC(c3ccccc3)N(C)CC2c2ccccc2)CC1c1ccccc1 (centres undefined) | 45 µM (inactive) | 19.3 µM (inactive) |  | 68.7 µM (inactive) | > 100 µM (inactive) | 25.9 µM (inactive) | 35.2 µM (inactive) | 29.2 µM | 50.5 µM (inactive) | 37.7 µM (inactive) | 36.1 µM (inactive) | 24.4 µM (inactive) | 26.8 µM (inactive) | 20.9 µM (inactive) | > 100 µM (inactive) | 28.4 µM (inactive) | 30.7 µM (inactive) | 11.9 µM (inactive) | 52.7 µM (inactive) | 13.5 µM (inactive)
13 | COc1ccc2cc(CNCCCCCCCCCCCCNCc3ccc4cc(OC)ccc4c3)ccc2c1 | 15.8 µM (inactive) | 10.4 µM (inactive) | 20.8 µM (inactive) | 17.1 µM (inactive) | 27.7 µM (inactive) | 17.4 µM (inactive) | 20.7 µM (inactive) | 17.6 µM | 19.2 µM (inactive) | 16.4 µM (inactive) | 25.6 µM (inactive) | 8.49 µM (inactive) | 21.7 µM (inactive) | 9.46 µM (inactive) | 18.7 µM (inactive) | 19.4 µM (inactive) | 21.2 µM (inactive) | 16.7 µM (inactive) | 17.4 µM (inactive) | 21 µM (inactive)
14 | O=S(=O)(N/C(=N\O)Nc1ccc(Cl)cc1)c1ccccc1 | 10.5 µM (inactive) | 6.64 µM (inactive) | 19.5 µM (inactive) | 12.6 µM (inactive) | 10.9 µM (inactive) | 12.7 µM (inactive) | 10 µM (inactive) | 7.66 µM | 24.2 µM (inactive) | 2.33 µM (inactive) | 9.23 µM (inactive) | 16.1 µM (inactive) | 2.94 µM (inactive) | 33.9 µM (inactive) | 27.9 µM (inactive) | 44.8 µM (inactive) | 14.6 µM (inactive) | 10.7 µM (inactive) | 4.22 µM (inactive) | 10.5 µM (inactive)

— ChEMBL document CHEMBL1201862, “PubChem BioAssay data set” (2004)
